From patent US20200253979A1, “THERAPEUTIC METHODS RELATING TO HSP90 INHIBITORS” (AI Therapeutics, Inc., priority 2017, published 2020)

Key:
MOLM16 cells = test: CellTiter-Glo cell viability; type: cell-based; settings: MOLM16, 72 h
PD-L1 on THP-1 cells = test: PD-L1 expression on THP-1 cells by flow cytometry; type: cell-based; settings: IFNγ overnight with MPC-0767 1 μM or 2 uM
Source text: FIG. 29A-D: MPC-0767 repression of PD-L1 expression increases T cell activation. Bar graphs show activation of Jurkat reporter cells with anti-CD3 (A) and PD-L1-dependent inhibition of T cell activation after IFNγ treatment (B). Bars in A&B represent the mean +/− SD of triplicate wells and are representative of three independent experiments. […] Bars in C&D represent the mean +/− SD of three independent experiments.
We next determined whether MPC-0767 reduction of PD-L1 could increase T cell stimulation similar to anti-PD-L1 blocking antibodies. THP-1 cells were treated overnight with IFNγ in the presence or absence of MPC-0767 (1 μM or 2 uM). THP-1 cells were washed and a portion saved for flow cytometry analysis of PD-L1 expression. The remaining cells were incubated with Jurkat reporter cells and anti-CD3 (10 ng/ml) for 6 hours.

[1] = test system: murine MC38 colon cancer cell line; test: MC38 syngeneic tumor model
Source text: Tumor size (mm^3), P=0.01 (Student t-test) (A) and percent body weight change (B) are shown.
When the mean tumor volume reached 73 mm^3 in size, mice were randomized into 2 groups of 6. […] Tumor measurements (caliper) were taken on the indicated days. […] Student t-test was used to evaluate the statistical significance of the difference between these groups, P=0.01.

[2] = test system: EGFR wild type (WT) in BaF3 cells; test: Cell surface EGFR expression in BaF3 cells by flow cytometry; type: cell-based, murine; settings: Mus musculus; BaF3, 24 hours; read-out: EC50 for reduction of cell surface EGFR WT
Source text: (§1) To determine whether MPC-0767 can also promote degradation of an EGFR exon20ins mutant, the BaF3 murine cell line was used (Warmuth et al., Curr Opin Oncol., 200719: 55-60). This cell line is dependent upon exogenous IL-3 for survival/growth but upon introduction of an oncogene, the cells no longer depend on exogenous IL-3, and instead survival is driven by the introduced oncogene. Thus, drugs that target the introduced oncogene will reduce BaF3 cell viability providing a mechanism to screen small molecules against relevant oncogenic mutations that arise in the clinic.
(§2) BaF3 cells harboring EGFR wild type (WT) or EGFR exon20 V769_D770insASV mutant were treated with increasing concentrations of MPC-0767 for 24 hours. After this time, cells were harvested for flow cytometry to assess cell surface EGFR expression (antibody for detection recognized both WT and mutant proteins). […] We further tested whether this finding translated to reduced survival in BaF3 cells expressing the EGFR mutant. Parental BaF3 cells (no mutant) or cells harboring EGFR exon20 V769_D770insASV were treated with increasing concentrations of MPC-0767 for 72 hours after which cell viability was determined using CellTiter-Glo®.

[3] = test system: EGFR exon20 V769_D770insASV mutant in BaF3 cells; test: as above; type: cell-based, murine; settings: Mus musculus; BaF3, 24 hours; read-out: EC50 for reduction of cell surface EGFR exon20 V769_D770insASV mutant
Source text: as §1, §2

[4] = test system: T-cell populations within MC38 tumors; test: Effector/regulatory T-cell ratio in MC38 tumors; type: in vivo, mouse; settings: 150 mg/kg QD×7
Method: To test if MPC-0767 may induce an anti-tumor immune response in addition to direct cytotoxic activity, down regulation of PD-Ll and the effector/regulatory T-cell ratio was measured in the same MC38 syngeneic model. On day 21, when the average tumor volume was 372 mm^3 in size, a second group of mice (n=6) was treated with 150 mg/kg MPC-0767 QD×7. One day post the last dose (day 28 post inoculation) tumors were harvested from the vehicle and 150 mg/kg MPC-0767 QD×7 group. Tumor infiltrating leukocytes (CD45^+, CD3^−) within the dissociated tumors were analyzed for PD-L1 expression by flow cytometry.

[5] = test system: primary AML samples harboring FLT3-ITD; test: Annexin V / 7AAD cell death by flow cytometry; type: cell-based, human; settings: increasing concentrations, 72 hours, 4 primary samples
Method: To test whether the anti-leukemic effect of MPC-0767 is due to induction of cell death, 4 primary AML samples (all harboring FLT3-ITD) were treated with increasing concentrations of MPC-0767 for 72 hours. Samples were then processed for quantification by flow cytometry of cells positive for annexin V and 7AAD. These markers allow the detection of cell death, specifically dead (7AAD only positive), early apoptotic (annexin V only positive) or late stage apoptotic/necrotic (7AAD and annexin V positive) populations were combined to give a readout of cell death.

FLT3-ITD AML cells = test: CellTiter-Glo viability of AML cell lines and primary AML samples; type: cell-based; settings: FLT3-ITD cells (n=8), 72 hours; read-out: geometric mean EC50 (cell viability)
Method: (§3) Exponentially growing cell lines were counted and seeded into 96-well clear, flat-bottomed polystyrene microtiter plates in a final volume of 90 μL per well. For primary AML samples, cells were seeded into 384 well plates at a density of 2×10^4 cells in a final volume of 27 μL per well. To treat cell lines or primary samples 10 μL or 3 μL, respectively, of 10× concentrations of MPC-0767, were then added to the cells to give a final concentration of 10000 nM, 5000 nM, 2500 nM, 1250 nM, 625 nM, 313 nM, 156 nM, 78 nM, 39 and 20 nM. […] Cells were seeded and treated in duplicate. After incubation for three days, cell viability was determined by measuring intracellular ATP levels using the CellTiter-Glo® assay system by adding to each well either 100 μL for 96 well plates, or 30 μL for 384 well plates. Luminescence was detected using a plate reader.
(§4) The effect of drugs on cell viability was calculated by comparing the ATP levels (luminescence counts per second) of cells exposed to test compound with those of cells exposed to vehicle (DMSO) alone. The half-maximal effective concentration (EC50) for each cell line was determined using the R DRC package (R Core Team, 2017). In brief, the dose-response curves were fitted with a four-parameter logistic regression model (LL.4) according to (Eq-1) and the absolute EC50 was estimated using a confidence interval of 0.95.

FLT3 WT AML cells = test: as above; type: cell-based; settings: FLT3 WT cells (n=11), 72 hours; read-out: geometric mean EC50 (cell viability)
Method: as §3, §4

[6] = test system: MOLM-13 FLT3-ITD AML cell line; test: Systemic survival xenograft study, MPC-0767 with 5′azacitidine; settings: single agents: MPC-0767 75 mg/kg p.o.; 5′azacitidine 2 mg/kg QD×4 i.p.; vs vehicle
Method: A systemic survival xenograft study was performed using the MOLM-13 FLT3-ITD harboring AML cell line.
Before tumor cell inoculation, NOD/SCID mice were pre-treated for 2 days with a daily intraperitoneal injection of 100 mg/kg cyclophosphamide to facilitate engraftment of the human MOLM-13 tumor cells. After the injection of cyclophosphamide, the animals were allowed to recover for 24 hours prior to inoculation with human MOLM-13 tumor cells. Each mouse was then inoculated with 1×10^7 MOLM-13 cells in 100 μL PBS via intravenous tail vein injection. Mice were next randomized into 4 groups of 6 mice each. […] Viability and body weight loss were monitored daily.

Compound: C[C@H](N)C(=O)O[C@@H](C)C(=O)N1CCC(CCn2c(Sc3cc4c(cc3Br)OCO4)nc3c(N)ncnc32)CC1 [MPC-0767]
- EC50 (MOLM16 cells): 0.367 µM
- MPC-0767 Sensitivity (MOLM16 cells): Sensitive (cell lines having EC50 values below 1 μM were considered to be sensitive)
- PD-L1 expression on THP-1 cells (PD-L1 on THP-1 cells): dose-dependently reduced PD-L1 expression
- effect on body weight ([1]; oral 150 mg/kg QD×17): without significant effects on body weight
- tumor growth inhibition ([1]; oral 150 mg/kg QD×17, P=0.01): 69.5%
- EC50 [2]: 1 µM
- EC50 [3]: 0.2 µM
- CD4:TREG ratio [4]: significant increase
- CD8:TREG ratio [4]: significant increase
- cell death (annexin V and/or 7AAD positive) [5]: dose-dependent increase in cell death
- EC50 (FLT3-ITD AML cells): 0.576 µM
- EC50 (FLT3 WT AML cells): 1.53 µM
- increase in median survival [6]: 5.5 days
